These results are taken from US20260275279A1, “THYROCYTES AND USES THEREOF” (LifeNet Health, priority 2023, published 2026).

SMILES strings stand for the structures. Read-outs that look alike come from different tables or passages of the source.

The subject of one data set is T3/T4 synthesis. Briefly: Example 10 3D culture TDC screening, T3/T4 synthesis by ELISA and LC-MS/MS. Type of data set: cell-based, human. The protocol:
For TDC Screening, these procedures were followed: • Prepare the Plate by adding 50 μL of 10 mg/ml of Matrigel, then polymerize the Matrigel at 37° C. for 1 hr. • Thaw the thyrocytes in 37° C. water bath. • Resuspend the cells in humanized medium (h7H). • Seed the cells at the optimal seeding density, 7,500 cells per 0.32 cm2. • Culture the cells in h7H medium. • Exchange the medium on Day 2, 5, 7, 9 and 12. • Start stimulating the cells with activators (e.g., bTSH, hTSH, M22, K!-18, ML-109) on Day 2 • Treatment with the activator is between Day 2-14 • Compound treatment starts on Day 9. • 8 doses: Concentrations (10^−10 to 10^−4M) • Serial dilutions were made in DMSO (Dilution factor 1:1000) • Compounds were added to the media • Day 12: Refresh media with the compound • Day 14: Collect the supernatant for the T4 analysis by ELISA and LC-MS/MS.
On the technique in general: An ELISA detects its analyte on a solid surface through an enzyme-linked reagent.

For the next data set, the system named is T4 synthesis. Briefly: Reference chemical evaluation: inhibition of T4 synthesis in 3D microtissue cultures. Format: cell-based, human. To be noted: for effect on T4 levels: 0.0001 to 100 μM; for IC50: 120-h treatment days 9-14, 1 mIU/mL bovine TSH, 7,500 cells/well, read-out: Average half-maximal inhibitory concentrations (IC50), T4 synthesis. The protocol: 3D cultures with cell seeding density of 7,500 cells/well were treated with 1 mIU/mL bovine TSH on days 2, 5, 7, 9, and 12. For each studied compound, cells were dosed on days 9 and 12 with concentrations ranging from 0.0001 to 100 μM across a log-fold titration. T4 levels were measured as described. All measured data were normalized to DMSO vehicle control.
Images are shown from representative donor lots. Values were normalized to the number of cells seeded per well. Significance was calculated in MiniTab (State College, PA) using either Student's t-test between 2 groups or One-way ANOVA with Tukey post hoc testing when comparing 3 groups or more to determine statistical significance with 95% confidence and *p<0.05 for statistical significance. GraphPad Prism v.9 was used to determine EC50 and EC90. Four-parameter nonlinear regression fit was used to determine the half-maximal inhibition concentration IC50 using GraphPad Prism v.9.
Established antagonists of thyroid hormone production were selected to determine the concentration-response profiles in 3D cultures for TDC screening purposes (FIG. 21).

Data set [1] concerns 3D thyrocyte cell culture. To be noted: 1.0×10^−10 to 1.0×10^−4 M.
Method: After collecting media for T4 measurement, backing tape was put on the back of the 3D culture 96-well plate. 100 μL of a 1:1 mixture of CellTiter-Glo® Luminescent Cell Viability Assay (Promega, Madison, WI) and HTCM was added into each well of the 3D cell culture plate. The plate was covered and shaken for 2 minutes on an orbital plate shaker at 500 rpm followed by a 10 minute incubation in the dark without shaking. Luminescence reading was recorded using a CLARIOStar (BMG Labtech) microplate reader.

Take `Cn1cc[nH]c1=S` [methimazole, Methimazole]: the T3/T4 synthesis result in the data set with T3/T4 synthesis is “inhibited”. For the same molecule, the “effect on T4 levels” value with T4 synthesis is “consistent concentration-dependent decrease in T4 levels”.

For `CCCc1cc(=O)[nH]c(=S)[nH]1` [6-propyl-2-thiouracil], the “toxicity of inhibitor concentrations to the cells” value in data set [1] is given as “not toxic to the cells with the exception of 6-propyl-2-thiouracil for 2021159 at the highest dose”. Besides, the T3/T4 synthesis entry in the data set with T3/T4 synthesis is listed as “inhibited”. Further, in the data set with T4 synthesis, the “effect on T4 levels” value was “consistent concentration-dependent decrease in T4 levels” and the IC50 amounted to 767 nM. Also, the IC50 in the data set with T4 synthesis (Homo sapiens, 120 h) was 659 nM.
